The values below come from patent publication US8497278B2, “Imidazo[1,2-a]pyridine compounds” (priority 2008, dated 2013).

Experiment [1] concerns the target T1, α1 subtype containing GABA-A receptors (Homo sapiens, UniProt P14867+P18507).
T1 construct: expressed in transfected cells; host or cells: Xenopus laevis oocytes, cRNA injected
The experiment can be described thus: Two-electrode voltage clamp electrophysiology in Xenopus oocytes, potentiation of GABA EC20 response, α1. The conditions noted are these: 100 nM compound; for activation at 0.1 µM: read-out: Percentage of potentiation alpha1. The format is cell-based. Summed up: (§1)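 Oocyte TEVC at −80 mV, ND96 buffer pH 7.5; human αβ3γ2L receptors; enhancement of 60 μM GABA (EC20) current by 100 nM test compound.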
On the technique in general: In two-electrode clamp one electrode senses voltage and the other passes current.

For experiment [2], the system named is central benzodiazepine receptors. The experiment can be described thus: Central benzodiazepine receptor binding (test of Speth et al.). The conditions noted are these: 1000 nM of the compound. An outline of the steps:
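Values are percent inhibition of central benzodiazepine receptor binding at 1000 nM compound (initial single-point screen at 1.0E-09, 1.0E-07 and 1.0E-05 M). Speth et al. binding test; nonspecific binding defined with excess unlabelled ligand and subtracted from total.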

The target in experiment [3] is T2, α3 subtype containing GABA-A receptors (Homo sapiens, UniProt P18507+P34903).
T2 construct: expressed in transfected cells; host or cells: Xenopus laevis oocytes, cRNA injected
The experiment is described as follows: Two-electrode voltage clamp electrophysiology in Xenopus oocytes, potentiation of GABA EC20 response, α3. The format is cell-based. As to conditions: 100 nM compound; for activation at 0.1 µM: read-out: Percentage of potentiation alpha3. The method, then:
(§2) Electrophysiology protocol: Oocytes were prepared from adult female Xenopus laevis frogs. cRNA encoding human α1, α2, α3, α5, β3 and γ2L GABAA receptor subunits was injected into the cytoplasm of stage 5 or 6 oocytes using the Robocyte Robot (Multi Channel Systems, Reutlingen, Germany). Two-electrode voltage clamp recordings were made in 96-well plates using the Robocyte Robot. Oocytes were impaled using recording heads with two glass electrodes containing 1.5 M potassium acetate and 0.5 M KCl and held at a membrane potential of −80 mV. Oocytes were continually perfused with a ND96 solution (96 mM NaCl, 2 mM KCl, 0.1 mM CaCl2, and 5 mM HEPES, pH 7.5) using a Gilson 222 XL Liquid Handler and Gilson Minipuls 3 Peristaltic Pump (Gilson Medical Electronics, Middleton, Wis., USA). The protocol consisted of three 20-s applications of GABA that gave a 20% of the maximum response (EC20: 60 μM) to allow for headroom to determine a baseline GABA response. To assess the potentiation, oocytes were first exposed to a single 1 μM chlordiazepoxide (CDP) as a potentiation standard. Oocytes with insufficient expression levels (currents below threshold) or insufficient γ2L subunit incorporation (judged by rapid desensitization upon GABA application, or by insufficient potentiation by CDP) were not included in analysis. Following this control application, a given oocyte was exposed to test compounds at 100 nM concentrations. Only one concentration of one compound was tested per oocyte. […] One skilled in the art will recognize that subtypes contribute to the effects of GABA-A modulators. Such that compounds favoring different subtypes can have different therapeutic effects. The magnitude of modulation, for example, partial modulators can influence the effects in vivo. “++” indicates a greater modulation that “+” so that at any given subtype “++” inducates a greater amount of modulation for that subtype. In some embodiments, modulation favoring alpha 1 relative to alpha2 and/or alpha 3 can have sedative hypnotic effects. In other embodiments, compounds with reduced selectivity of alpha 1 can express anxiolytic effects with less sedation. Compounds with selectivity for alpha 5 can have memory/cognition enhancing effects.

Experiment [4] deals with T3, α2 subtype containing GABA-A receptors (Homo sapiens, UniProt P18507+P47869).
T3 construct: expressed in transfected cells; host or cells: Xenopus laevis oocytes, cRNA injected
The experiment can be described thus: Two-electrode voltage clamp electrophysiology in Xenopus oocytes, potentiation of GABA EC20 response, α2. As to conditions: 100 nM compound; for activation at 0.1 µM: read-out: Percentage of potentiation alpha2. The experiment is classed as cell-based. An outline of the steps: as §1

For experiment [5], the target named is T4, α5 subtype containing GABA-A receptors (Homo sapiens, UniProt P18507+P31644).
T4 construct: expressed in transfected cells; host or cells: Xenopus laevis oocytes, cRNA injected
The experiment is described as follows: Two-electrode voltage clamp electrophysiology in Xenopus oocytes, potentiation of GABA EC20 response, α5. The experiment is classed as cell-based. As to conditions: 100 nM compound; for activation at 0.1 µM: read-out: Percentage of potentiation alpha5. The method, then: as §2

T3 sequence (P47869 29-451): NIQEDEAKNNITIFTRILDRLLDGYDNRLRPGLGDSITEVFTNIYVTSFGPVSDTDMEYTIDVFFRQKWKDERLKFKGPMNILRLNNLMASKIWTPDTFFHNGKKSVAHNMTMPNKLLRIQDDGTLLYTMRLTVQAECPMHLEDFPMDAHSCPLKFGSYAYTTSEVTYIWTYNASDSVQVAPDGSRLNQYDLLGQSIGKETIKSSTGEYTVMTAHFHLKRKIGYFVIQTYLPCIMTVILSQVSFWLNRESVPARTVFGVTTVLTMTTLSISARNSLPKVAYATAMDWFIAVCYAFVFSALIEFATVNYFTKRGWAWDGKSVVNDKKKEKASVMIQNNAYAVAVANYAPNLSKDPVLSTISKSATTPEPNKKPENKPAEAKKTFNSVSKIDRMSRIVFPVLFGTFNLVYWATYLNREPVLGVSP
T3 sequence (P28472 26-473 partner): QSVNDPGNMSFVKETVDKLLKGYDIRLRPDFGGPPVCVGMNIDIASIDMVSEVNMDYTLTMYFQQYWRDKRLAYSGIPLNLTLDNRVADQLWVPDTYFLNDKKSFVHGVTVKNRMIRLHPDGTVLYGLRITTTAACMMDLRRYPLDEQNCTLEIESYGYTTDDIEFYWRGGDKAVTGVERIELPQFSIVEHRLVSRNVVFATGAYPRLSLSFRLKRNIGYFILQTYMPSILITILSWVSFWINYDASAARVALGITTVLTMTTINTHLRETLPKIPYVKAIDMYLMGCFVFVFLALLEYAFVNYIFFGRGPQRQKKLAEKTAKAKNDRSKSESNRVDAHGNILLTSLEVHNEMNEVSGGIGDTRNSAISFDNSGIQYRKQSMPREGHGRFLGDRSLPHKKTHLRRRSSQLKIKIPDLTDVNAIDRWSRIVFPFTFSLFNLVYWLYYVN
T3 sequence (P18507 40-475): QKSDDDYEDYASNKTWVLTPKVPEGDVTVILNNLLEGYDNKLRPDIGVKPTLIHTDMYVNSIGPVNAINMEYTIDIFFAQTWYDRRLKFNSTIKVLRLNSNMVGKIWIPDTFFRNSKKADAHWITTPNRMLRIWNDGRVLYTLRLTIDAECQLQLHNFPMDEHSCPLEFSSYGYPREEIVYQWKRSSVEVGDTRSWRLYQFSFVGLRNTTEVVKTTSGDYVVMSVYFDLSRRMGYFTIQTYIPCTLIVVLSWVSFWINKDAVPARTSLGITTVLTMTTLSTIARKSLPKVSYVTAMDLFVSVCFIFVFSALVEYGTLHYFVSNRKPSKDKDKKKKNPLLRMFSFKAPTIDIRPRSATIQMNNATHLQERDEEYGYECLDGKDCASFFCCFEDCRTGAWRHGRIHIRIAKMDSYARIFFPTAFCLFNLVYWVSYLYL
T1 sequence (P14867 28-456): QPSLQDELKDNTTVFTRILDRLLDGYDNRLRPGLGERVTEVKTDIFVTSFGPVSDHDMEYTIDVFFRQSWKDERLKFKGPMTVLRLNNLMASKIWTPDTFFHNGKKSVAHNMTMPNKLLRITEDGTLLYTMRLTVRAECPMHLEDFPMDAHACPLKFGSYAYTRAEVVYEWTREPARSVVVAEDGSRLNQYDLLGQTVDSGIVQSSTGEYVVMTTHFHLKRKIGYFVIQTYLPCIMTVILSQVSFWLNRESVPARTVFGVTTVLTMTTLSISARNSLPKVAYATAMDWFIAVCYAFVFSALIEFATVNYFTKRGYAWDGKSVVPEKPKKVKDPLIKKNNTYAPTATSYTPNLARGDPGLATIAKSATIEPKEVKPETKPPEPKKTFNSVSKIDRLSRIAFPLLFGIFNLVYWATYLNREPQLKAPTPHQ
T1 sequence (P28472 26-473 partner): as the sequence (P28472 26-473 partner) above
T1 sequence (P18507 40-475): as the sequence (P18507 40-475) above
T4 sequence (P31644 32-462): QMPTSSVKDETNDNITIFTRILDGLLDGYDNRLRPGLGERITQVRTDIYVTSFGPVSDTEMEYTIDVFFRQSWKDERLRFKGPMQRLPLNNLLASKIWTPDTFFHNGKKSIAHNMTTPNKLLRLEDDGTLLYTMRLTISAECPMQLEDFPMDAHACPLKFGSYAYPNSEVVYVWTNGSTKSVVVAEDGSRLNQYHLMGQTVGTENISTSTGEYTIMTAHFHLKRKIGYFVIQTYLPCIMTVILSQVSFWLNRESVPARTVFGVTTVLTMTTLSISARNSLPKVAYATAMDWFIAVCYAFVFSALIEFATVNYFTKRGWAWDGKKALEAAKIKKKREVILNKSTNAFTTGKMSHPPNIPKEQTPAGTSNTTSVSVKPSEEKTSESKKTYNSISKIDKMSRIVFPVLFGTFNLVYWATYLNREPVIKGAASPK
T4 sequence (P28472 26-473 partner): as the sequence (P28472 26-473 partner) above
T4 sequence (P18507 40-475): as the sequence (P18507 40-475) above
T2 sequence (P34903 29-492): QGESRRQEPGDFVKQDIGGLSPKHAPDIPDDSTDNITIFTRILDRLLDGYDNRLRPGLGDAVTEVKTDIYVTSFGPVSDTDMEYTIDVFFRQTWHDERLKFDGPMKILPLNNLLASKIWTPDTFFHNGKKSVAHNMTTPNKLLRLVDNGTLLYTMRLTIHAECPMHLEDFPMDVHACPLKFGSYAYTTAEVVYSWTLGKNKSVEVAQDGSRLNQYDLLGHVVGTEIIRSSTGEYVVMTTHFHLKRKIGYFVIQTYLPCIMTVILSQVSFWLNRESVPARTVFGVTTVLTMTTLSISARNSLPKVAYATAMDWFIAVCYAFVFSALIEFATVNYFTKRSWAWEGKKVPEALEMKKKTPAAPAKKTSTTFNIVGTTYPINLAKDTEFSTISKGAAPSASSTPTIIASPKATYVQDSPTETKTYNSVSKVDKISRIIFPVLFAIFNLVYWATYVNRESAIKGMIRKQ
T2 sequence (P28472 26-473 partner): as the sequence (P28472 26-473 partner) above
T2 sequence (P18507 40-475): as the sequence (P18507 40-475) above

On to `Cc1ccnc(NCc2c(-c3ccccc3)nc3ccc(Cl)cn23)n1` [Compound 158, (6-Chloro-2-phenyl-imidazo[1,2-a]pyridin-3-ylmethyl)-(4-methyl-pyrimidin-2-yl)-amine], for which the activation at 0.1 µM in experiment [1] is -10 to 10%; in experiment [3] it was 10 to 50%; in experiment [4] it was 10 to 50%; in experiment [5], -10 to 10%. Also, the “% Inhibition at 1000 nM for CBZD” value in experiment [2] is “++ (percentage of inhibition of central BZD site binding is greater than 80% in the presence of 1000 nM of the compound)”.

With `Clc1ccc(-c2nc3ccccn3c2Cn2nccn2)cc1` [Compound 39, 2-(4-Chloro-phenyl)-3-[1,2,3]triazol-2-ylmethyl-imidazo[1,2-a]pyridine], the activation at 0.1 µM in experiment [1] is 10 to 50%; in experiment [3], 10 to 50%; in experiment [4], 10 to 50%; in experiment [5] it was -10 to 10%. Further, the “% Inhibition at 1000 nM for CBZD” value in experiment [2] is on record as “++ (percentage of inhibition of central BZD site binding is greater than 80% in the presence of 1000 nM of the compound)”.

As to `Cc1ccc(-c2nc3ccc(C)cn3c2Cn2cnc3c(N(C)C)ncnc32)cc1` [Compound 17, N,N-Dimethyl-9-((6-methyl-2-p-tolylH-imidazo[1,2-a]pyridin-3-yl)methyl)-9H-purin-6-amine], the “Percentage of potentiation alpha1” value in experiment [1] is “+ (percentage of potentiation is greater than or equal to 10% but less than 50% in the presence of 100 nM of the compound)”. Moreover, the “% Inhibition at 1000 nM for CBZD” value in experiment [2] is reported as “++ (percentage of inhibition of central BZD site binding is greater than 80% in the presence of 1000 nM of the compound)”. Further, the “Percentage of potentiation alpha3” value in experiment [3] is reported as 0 (percentage of potentiation is between about 10% to about −10%). Moreover, the “Percentage of potentiation alpha2” value in experiment [4] is on record as “+ (percentage of potentiation is greater than or equal to 10% but less than 50% in the presence of 100 nM of the compound)”. Besides, the “Percentage of potentiation alpha5” value in experiment [5] was 0 (percentage of potentiation is between about 10% to about −10%).

On to `Clc1ccc(-c2nc3ccccn3c2Cc2nnc(-c3ccccn3)[nH]2)cc1` [Compound 230, 2-(4-chlorophenyl)-3-((5-(pyridin-2-yl)-4H-1,2,4-triazol-3-yl)methyl)imidazo[1,2-a]pyridine], for which the activation at 0.1 µM in experiment [1], in experiment [3], in experiment [4] and in experiment [5] was 10 to 50% each time. Moreover, the “% Inhibition at 1000 nM for CBZD” value in experiment [2] was “++ (percentage of inhibition of central BZD site binding is greater than 80% in the presence of 1000 nM of the compound)”.

As to `Fc1ccc2nc(-c3ccc(Cl)cc3)c(Cn3nnc4ccccc43)n2c1` [Compound 58, 1-((2-(4-chlorophenyl)-6-fluoroH-imidazo[1,2-a]pyridin-3-yl)methyl)-1H-benzo[d][1,2,3]triazole], the “Percentage of potentiation alpha1” value in experiment [1] is recorded as “+ (percentage of potentiation is greater than or equal to 10% but less than 50% in the presence of 100 nM of the compound)”. The “% Inhibition at 1000 nM for CBZD” value in experiment [2] was “++ (percentage of inhibition of central BZD site binding is greater than 80% in the presence of 1000 nM of the compound)”. For the same compound, in experiment [3], the “Percentage of potentiation alpha3” value was 0 (percentage of potentiation is between about 10% to about −10%). In experiment [4], the “Percentage of potentiation alpha2” value is “+ (percentage of potentiation is greater than or equal to 10% but less than 50% in the presence of 100 nM of the compound)”. For the same compound, the “Percentage of potentiation alpha5” value in experiment [5] is recorded as 0 (percentage of potentiation is between about 10% to about −10%).

With `O=c1cc(Cl)n(Cc2c(-c3ccc(Cl)cc3)nc3ccccn23)c(=O)[nH]1` [Compound 128, 6-chloro-1-((2-(4-chlorophenyl)imidazo[1,2-a]pyridin-3-yl)methyl)pyrimidine-2,4(1H,3H)-dione], the activation at 0.1 µM in experiment [1] is -10 to 10%; in experiment [3] it was -10 to 10%; in experiment [4] it was 10 to 50%; in experiment [5], 10 to 50%. Also, in experiment [2], the “% Inhibition at 1000 nM for CBZD” value is “++ (percentage of inhibition of central BZD site binding is greater than 80% in the presence of 1000 nM of the compound)”.

Regarding `Cc1nnc(Cc2c(-c3ccccc3)nc3ccc(Cl)cn23)o1` [Compound 205, 2-((6-chloro-2-phenylimidazo[1,2-a]pyridin-3-yl)methyl)-5-methyl-1,3,4-oxadiazole], the activation at 0.1 µM in experiment [1], in experiment [3], in experiment [4] and in experiment [5] was -10 to 10% each time. Also, in experiment [2], the “% Inhibition at 1000 nM for CBZD” value is “++ (percentage of inhibition of central BZD site binding is greater than 80% in the presence of 1000 nM of the compound)”.

Consider `CNc1ccn(Cc2c(-c3ccc(Cl)cc3)nc3ccccn23)c(=O)n1` [Compound 133, 1-((2-(4-chlorophenyl)imidazo[1,2-a]pyridin-3-yl)methyl)-4-(methylamino)pyrimidin-2(1H)-one], for which the activation at 0.1 µM is 10 to 50% in experiment [1], -10 to 10% in experiment [3], at least 50% in experiment [4] and -10 to 10% in experiment [5]. In addition, the “% Inhibition at 1000 nM for CBZD” value in experiment [2] is “++ (percentage of inhibition of central BZD site binding is greater than 80% in the presence of 1000 nM of the compound)”.

As for `COC(=O)c1ncnn1Cc1c(-c2ccc(Cl)cc2)nc2ccc(Cl)cn12` [Compound 21, Methyl 2-((6-chloro-2-(4-chlorophenyl)H-imidazo[1,2-a]pyridin-3-yl)methyl)-2H-1,2,4-triazole-3-carboxylate], the “Percentage of potentiation alpha1” value in experiment [1] is “+ (percentage of potentiation is greater than or equal to 10% but less than 50% in the presence of 100 nM of the compound)”. The “% Inhibition at 1000 nM for CBZD” value in experiment [2] is recorded as “++ (percentage of inhibition of central BZD site binding is greater than 80% in the presence of 1000 nM of the compound)”. The “Percentage of potentiation alpha3” value in experiment [3] is recorded as “+ (percentage of potentiation is greater than or equal to 10% but less than 50% in the presence of 100 nM of the compound)”. In experiment [4], the “Percentage of potentiation alpha2” value is on record as “+ (percentage of potentiation is greater than or equal to 10% but less than 50% in the presence of 100 nM of the compound)”. The “Percentage of potentiation alpha5” value in experiment [5] is reported as 0 (percentage of potentiation is between about 10% to about −10%).

With `CC(C)OC(=O)c1ncnn1Cc1c(-c2ccc(Cl)cc2)nc2ccc(Cl)cn12` [Compound 23, 2-[6-Chloro-2-(4-chloro-phenyl)-imidazo[1,2-a]pyridin-3-ylmethyl]-2H-[1,2,4]triazole-3-carboxylic acid isopropyl ester], the activation at 0.1 µM in experiment [1] was 10 to 50%; in experiment [3], 10 to 50%; in experiment [4], 10 to 50%; in experiment [5], -10 to 10%. In experiment [2], the “% Inhibition at 1000 nM for CBZD” value is “++ (percentage of inhibition of central BZD site binding is greater than 80% in the presence of 1000 nM of the compound)”.

Turning to `Cc1ccc(-c2nc3ccc(C)cn3c2CNc2ncccn2)cc1` [Compound 139, N-((6-methyl-2-p-tolylH-imidazo[1,2-a]pyridin-3-yl)methyl)pyrimidin-2-amine], the activation at 0.1 µM in experiment [1] is 10 to 50%; in experiment [3] it was -10 to 10%; in experiment [4], 10 to 50%; in experiment [5], -10 to 10%. In addition, in experiment [2], the “% Inhibition at 1000 nM for CBZD” value is given as “++ (percentage of inhibition of central BZD site binding is greater than 80% in the presence of 1000 nM of the compound)”.

For the compound `O=c1n(Cc2c(-c3ccc(Cl)cc3)nc3ccccn23)nc2ccccn12` [Compound 119, 2-((2-(4-chlorophenyl)imidazo[1,2-a]pyridin-3-yl)methyl)-[1,2,4]triazolo[4,3-a]pyridin-3(2H)-one], the activation at 0.1 µM in experiment [1] is -10 to 10%; in experiment [3], -10 to 10%; in experiment [4], 10 to 50%; in experiment [5], -10 to 10%. Besides, the “% Inhibition at 1000 nM for CBZD” value in experiment [2] was “++ (percentage of inhibition of central BZD site binding is greater than 80% in the presence of 1000 nM of the compound)”.
